From patent US8710065B2, “Tricyclic inhibitors of kinases” (AbbVie Inc., priority 2011, dated 2014) come the findings set out here.

Bounds are passed on as bounds.

This experiment deals with T1, GST-tagged-Wee1 kinase (Homo sapiens, UniProt P30291).
T1 construct: purchased Carnabio (Carna Biosciences) 05-177
T1 sequence (P30291 whole entry): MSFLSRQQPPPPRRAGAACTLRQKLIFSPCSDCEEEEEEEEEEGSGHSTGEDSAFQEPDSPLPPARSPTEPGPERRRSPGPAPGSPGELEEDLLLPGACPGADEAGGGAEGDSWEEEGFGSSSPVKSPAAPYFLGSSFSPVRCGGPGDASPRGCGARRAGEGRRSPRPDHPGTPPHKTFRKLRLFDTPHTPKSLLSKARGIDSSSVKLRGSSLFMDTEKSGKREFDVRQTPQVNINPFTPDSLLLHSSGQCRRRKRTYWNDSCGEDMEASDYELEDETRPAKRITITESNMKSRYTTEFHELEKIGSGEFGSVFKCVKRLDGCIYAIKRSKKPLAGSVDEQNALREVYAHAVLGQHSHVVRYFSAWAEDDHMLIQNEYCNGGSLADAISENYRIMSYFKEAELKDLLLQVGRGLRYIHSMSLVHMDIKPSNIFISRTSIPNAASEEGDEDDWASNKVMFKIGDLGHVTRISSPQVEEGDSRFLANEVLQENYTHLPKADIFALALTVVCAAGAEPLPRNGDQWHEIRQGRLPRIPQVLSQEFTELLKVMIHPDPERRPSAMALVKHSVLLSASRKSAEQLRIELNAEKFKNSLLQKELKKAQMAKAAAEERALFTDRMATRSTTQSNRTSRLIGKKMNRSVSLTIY
Briefly: Wee1 time-resolved fluorescence equilibrium binding assay (displacement of Oregon Green-labeled ATP-competitive kinase probe). The note with it: read-out: Wee-1 inhibition (Ki). The gist of the method:
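Time-resolved fluorescence equilibrium binding with GST-Wee1, measuring displacement of a rapidly reversible Oregon Green-labelled ATP-competitive probe by competitive inhibitors; values reported as Ki.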
The Ki is a dissociation constant, usually derived from enzyme kinetics or from competition with a known ligand. `O=c1c2cnc(Nc3ccc(N4CCN(CC5CCCCC5)CC4)cc3)nc2n2ccnc2n1-c1ccccc1Cl` [Example 30, 6-(2-chlorophenyl)-2-({4-[4-(cyclohexylmethyl)piperazin-1-yl]phenyl}amino)imidazo[1,2-a]pyrimido[5,4-e]pyrimidin-5(6H)-one]: the Ki is less than 0.01 µM.

Take `CN1CCC(C(=O)Nc2ccc(Nc3ncc4c(=O)n(-c5ccccc5Cl)c5nccn5c4n3)cc2)CC1` [Example 60, N-(4-{[6-(2-chlorophenyl)-5-oxo-5,6-dihydroimidazo[1,2-a]pyrimido[5,4-e]pyrimidin-2-yl]amino}phenyl)-1-methylpiperidine-4-carboxamide]: the Ki was less than 0.01 µM.

As for `O=c1c2cnc(Nc3ccc(-c4cn5ccccc5n4)cc3)nc2n2ccnc2n1-c1ccccc1Cl` [Example 218, 6-(2-chlorophenyl)-2-{[4-(imidazo[1,2-a]pyridin-2-yl)phenyl]amino}imidazo[1,2-a]pyrimido[5,4-e]pyrimidin-5(6H)-one], the Ki lay in the range of 0.01 to 0.1 µM.

In the case of `CC(=O)N1Cc2cc(Nc3ncc4c(=O)n(-c5c(Cl)cccc5Cl)c5nccn5c4n3)ccc2C(C)(C)C1` [Example 318, 2-[(2-acetyl-4,4-dimethyl-1,2,3,4-tetrahydroisoquinolin-7-yl)amino]-6-(2,6-dichlorophenyl)imidazo[1,2-a]pyrimido[5,4-e]pyrimidin-5(6H)-one], the Ki was less than 0.01 µM.

Take `O=c1c2cnc(Nc3ccc(N4CCC[C@H]4C(F)(F)F)cc3)nc2n2ccnc2n1-c1ccccc1Cl` [Example 352, 6-(2-chlorophenyl)-2-({4-[(2S)-2-(trifluoromethyl)pyrrolidin-1-yl]phenyl}amino)imidazo[1,2-a]pyrimido[5,4-e]pyrimidin-5(6H)-one]: the Ki lay in the range of 0.01 to 0.1 µM.

Take `CC(=O)Nc1ccc(Nc2ncc3c(=O)n(-c4ccccc4Cl)c4nccn4c3n2)cc1` [Example 57, N-(4-{[6-(2-chlorophenyl)-5-oxo-5,6-dihydroimidazo[1,2-a]pyrimido[5,4-e]pyrimidin-2-yl]amino}phenyl)acetamide]: the Ki was in the range of 0.01 to 0.1 µM.

On to `O=c1c2cnc(Nc3ccc(N4CCC(N5CCCC5)CC4)cc3)nc2n2ccnc2n1-c1c(Cl)cccc1Cl` [Example 240, 6-(2,6-dichlorophenyl)-2-({4-[4-(pyrrolidin-1-yl)piperidin-1-yl]phenyl}amino)imidazo[1,2-a]pyrimido[5,4-e]pyrimidin-5(6H)-one], for which the Ki was less than 0.01 µM.

Consider `O=c1c2cnc(Nc3ccc4c(c3)CNCC43CC3)nc2n2ccnc2n1-c1ccc(O)cc1` [Example 205, 2-(2′,3′-dihydro-1′H-spiro[cyclopropane-1,4′-isoquinolin]-7′-ylamino)-6-(4-hydroxyphenyl)imidazo[1,2-a]pyrimido[5,4-e]pyrimidin-5(6H)-one], for which the Ki is less than 0.01 µM.

As to `CN1Cc2cc(Nc3ncc4c(=S)n(-c5ccccc5Cl)c5nccn5c4n3)ccc2C2(CC2)C1` [Example 355, 6-(2-chlorophenyl)-2-[(2′-methyl-2′,3′-dihydro-1′H-spiro[cyclopropane-1,4′-isoquinolin]-7′-yl)amino]imidazo[1,2-a]pyrimido[5,4-e]pyrimidine-5(6H)-thione], the Ki is less than 0.01 µM.

In the case of `CN1CCN(c2c(F)cc(Nc3ncc4c(=O)n(-c5ccccc5Cl)c5nccn5c4n3)cc2F)CC1` [Example 347, 6-(2-chlorophenyl)-2-{[3,5-difluoro-4-(4-methylpiperazin-1-yl)phenyl]amino}imidazo[1,2-a]pyrimido[5,4-e]pyrimidin-5(6H)-one], the Ki is more than 0.1 µM.

`O=c1c2cnc(Nc3ccc4c(c3)CCCNC4)nc2n2ccnc2n1-c1ccccc1Cl` [Example 106, 6-(2-chlorophenyl)-2-(2,3,4,5-tetrahydro-1H-2-benzazepin-7-ylamino)imidazo[1,2-a]pyrimido[5,4-e]pyrimidin-5(6H)-one]: the Ki was less than 0.01 µM.

Consider `CN1CCN(c2ccc(Nc3ncc4c(=S)n(-c5ccccc5Cl)c5nccn5c4n3)cc2)CC1` [Example 332, 6-(2-chlorophenyl)-2-{[4-(4-methylpiperazin-1-yl)phenyl]amino}imidazo[1,2-a]pyrimido[5,4-e]pyrimidine-5(6H)-thione], for which the Ki is less than 0.01 µM.

`CN(C)CCN1CCc2cc(Nc3ncc4c(=O)n(-c5c(Cl)cccc5Cl)c5nccn5c4n3)ccc21` [Example 119, 6-(2,6-dichlorophenyl)-2-({1-[2-(dimethylamino)ethyl]-2,3-dihydro-1H-indol-5-yl}amino)imidazo[1,2-a]pyrimido[5,4-e]pyrimidin-5(6H)-one]: the Ki is less than 0.01 µM.

Regarding `CC1(C)CN(CC(F)(F)F)Cc2cc(Nc3ncc4c(=O)n(-c5c(Cl)cccc5Cl)c5nccn5c4n3)ccc21` [Example 170, 6-(2,6-dichlorophenyl)-2-{[4,4-dimethyl-2-(2,2,2-trifluoroethyl)-1,2,3,4-tetrahydroisoquinolin-7-yl]amino}imidazo[1,2-a]pyrimido[5,4-e]pyrimidin-5(6H)-one], the Ki lay within 0.01 to 0.1 µM.

Take `CC1(C)CN(Cc2ccccc2C#N)Cc2cc(Nc3ncc4c(=O)n(-c5ccccc5Cl)c5nccn5c4n3)ccc21` [Example 356, 2-{[7-{[6-(2-chlorophenyl)-5-oxo-5,6-dihydroimidazo[1,2-a]pyrimido[5,4-e]pyrimidin-2-yl]amino}-4,4-dimethyl-3,4-dihydroisoquinolin-2(1H)-yl]methyl}benzonitrile]: the Ki was in the range of 0.01 to 0.1 µM.

In the case of `O=c1c2cnc(Nc3ccc(NCCN4CCCC4)cc3)nc2n2ccnc2n1-c1ccccc1Cl` [Example 246, 6-(2-chlorophenyl)-2-[(4-{[2-(pyrrolidin-1-yl)ethyl]amino}phenyl)amino]imidazo[1,2-a]pyrimido[5,4-e]pyrimidin-5(6H)-one], the Ki was less than 0.01 µM.

For `O=c1[nH][nH]c2c(-c3ccc(Nc4ncc5c(=O)n(-c6ccccc6Cl)c6nccn6c5n4)cc3)cccc12` [Example 223, 6-(2-chlorophenyl)-2-{[4-(3-oxo-2,3-dihydro-1H-indazol-7-yl)phenyl]amino}imidazo[1,2-a]pyrimido[5,4-e]pyrimidin-5(6H)-one], the Ki is less than 0.01 µM.

Regarding `CN(C)CCN1CCN(c2ccc(Nc3ncc4c(=O)n(-c5ccccc5Cl)c5nccn5c4n3)cc2)CC1` [Example 260, 6-(2-chlorophenyl)-2-[(4-{4-[2-(dimethylamino)ethyl]piperazin-1-yl}phenyl)amino]imidazo[1,2-a]pyrimido[5,4-e]pyrimidin-5(6H)-one], the Ki is less than 0.01 µM.

In the case of `CC(C)NC(=O)N1Cc2cc(Nc3ncc4c(=O)n(-c5c(F)cccc5Cl)c5nccn5c4n3)ccc2C2(CC2)C1` [Example 301, 7′-{[6-(2-chloro-6-fluorophenyl)-5-oxo-5,6-dihydroimidazo[1,2-a]pyrimido[5,4-e]pyrimidin-2-yl]amino}-N-(propan-2-yl)-1′H-spiro[cyclopropane-1,4′-isoquinoline]-2′(3′H)-carboxamide], the Ki was less than 0.01 µM.

`O=c1c2cnc(Nc3ccc4c(c3)CC(N3CC[C@H](F)C3)C4)nc2n2ccnc2n1-c1c(Cl)cccc1Cl` (stereo partly drawn) [Example 306, 6-(2,6-dichlorophenyl)-2-({2-[(3S)-3-fluoropyrrolidin-1-yl]-2,3-dihydro-1H-inden-5-yl}amino)imidazo[1,2-a]pyrimido[5,4-e]pyrimidin-5(6H)-one]: the Ki was less than 0.01 µM.

Consider `O=c1c2cnc(Nc3cc(Cl)c(N4CCNCC4)c(Cl)c3)nc2n2ccnc2n1-c1ccccc1Cl` [Example 217, 6-(2-chlorophenyl)-2-{[3,5-dichloro-4-(piperazin-1-yl)phenyl]amino}imidazo[1,2-a]pyrimido[5,4-e]pyrimidin-5(6H)-one], for which the Ki lay in the range of 0.01 to 0.1 µM.
